Measured values: patent publication US20080114007A1 (priority 2006, published 2008)

Molecular target: CSF-1R (Homo sapiens, UniProt P07333)
Assay: Peptide (non-phosphorylated) assay, fluorescence polarization competition immunoassay
Assay type: biochemical
Settings: 0.7 nM CSF-1R, 308 μM SYEGNSYTFIDPTQ peptide, 1 mM ATP, 80 min; mean of at least three determinations; read-out: c-fms Peptide IC50
Outline: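 Human CSF-1R kinase reaction started with ATP and run 80 min at room temperature, then stopped with EDTA. Phosphopeptide detected by fluorescence polarization competition using anti-phosphotyrosine antibody and PTK green tracer after 30 min. Controls used 4% DMSO, with EDTA added before reaction start for positive controls.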

Chain of CSF-1R (P07333 20-972): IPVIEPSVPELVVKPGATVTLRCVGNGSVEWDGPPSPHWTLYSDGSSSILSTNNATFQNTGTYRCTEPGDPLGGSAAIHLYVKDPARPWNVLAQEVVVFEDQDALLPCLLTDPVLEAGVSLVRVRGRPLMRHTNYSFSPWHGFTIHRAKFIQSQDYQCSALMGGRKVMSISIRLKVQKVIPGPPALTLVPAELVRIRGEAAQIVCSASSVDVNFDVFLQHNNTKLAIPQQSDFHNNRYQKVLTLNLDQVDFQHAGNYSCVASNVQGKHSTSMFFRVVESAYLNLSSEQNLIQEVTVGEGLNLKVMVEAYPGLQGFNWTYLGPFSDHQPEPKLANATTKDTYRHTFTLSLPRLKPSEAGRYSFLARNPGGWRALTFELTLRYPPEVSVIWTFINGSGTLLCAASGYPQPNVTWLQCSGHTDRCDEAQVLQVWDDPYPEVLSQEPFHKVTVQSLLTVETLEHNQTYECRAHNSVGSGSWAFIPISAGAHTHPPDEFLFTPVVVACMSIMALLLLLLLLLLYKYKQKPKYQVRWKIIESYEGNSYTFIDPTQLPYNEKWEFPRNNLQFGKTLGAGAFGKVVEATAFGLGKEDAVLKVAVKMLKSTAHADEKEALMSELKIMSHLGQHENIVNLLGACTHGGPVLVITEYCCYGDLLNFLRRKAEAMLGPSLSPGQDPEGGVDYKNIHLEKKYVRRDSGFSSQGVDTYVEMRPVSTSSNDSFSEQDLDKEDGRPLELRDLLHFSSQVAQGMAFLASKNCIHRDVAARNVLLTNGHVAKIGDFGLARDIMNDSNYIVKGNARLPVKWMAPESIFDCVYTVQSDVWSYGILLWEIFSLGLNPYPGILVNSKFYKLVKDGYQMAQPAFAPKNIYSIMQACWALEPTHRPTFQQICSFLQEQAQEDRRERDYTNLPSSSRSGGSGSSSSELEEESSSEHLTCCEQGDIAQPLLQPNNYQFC

IC50 | SMILES
6.8 nM | CONC(=O)c1cn(-c2ccc3c(c2)CCC3)c2nc(Nc3ccc(CCN4CCCC4=O)cc3)ncc2c1=O [Cpd 134, 8-indan-5-yl-5-oxo-2-{4-[2-(2-oxo-pyrrolidin-1-yl)-ethyl]-phenylamino}-5,8-dihydro-pyrido[2,3-d]pyrimidine-6-carboxylic acid methoxy-amide]
0.64 nM | CC(C)ONC(=O)c1cn(C2CCCCC2)c2nc(Nc3ccc(CCN4CCCC4)cc3)ncc2c1=O [Cpd 16, 8-cyclohexyl-5-oxo-2-[4-(2-pyrrolidin-1-yl-ethyl)-phenylamino]-5,8-dihydro-pyrido[2,3-d]pyrimidine-6-carboxylic acid isopropoxy-amide]
0.32 nM | CONC(=O)c1cn(-c2ccc3c(c2)CCC3)c2nc(Nc3ccc(CCN4CCC[C@@H](O)C4)cc3)ncc2c1=O [Cpd 239, 2-{4-{2-[(3R)-(3-hydroxy-piperidin-1-yl)]-ethyl}-phenylamino}-8-indan-5-yl-5-oxo-5,8-dihydro-pyrido[2,3-d]pyrimidine-6-carboxylic acid methoxy-amide]
0.64 nM | CONC(=O)c1cn(-c2ccc3c(c2)CCC3)c2nc(Nc3ccc(CCS(C)(=O)=O)cc3)ncc2c1=O [Cpd 71, 8-indan-5-yl-2-[4-(2-methanesulfonyl-ethyl)-phenylamino]-5-oxo-5,8-dihydro-pyrido[2,3-d]pyrimidine-6-carboxylic acid methoxy-amide]
3.2 nM | CONC(=O)c1cn(-c2ccc3c(c2)CCC3)c2nc(Nc3cccc(C4CCCN(C)C4)c3)ncc2c1=O (stereo not shown) [Cpd 271, 8-indan-5-yl-2-[3-(1-methyl-piperidin-3-yl)-phenylamino]-5-oxo-5,8-dihydro-pyrido[2,3-d]pyrimidine-6-carboxylic acid methoxy-amide]
0.9 nM | CCc1ccc(-n2cc(C(=O)NOC)c(=O)c3cnc(Nc4ccc5c(ccn5C)c4)nc32)cc1 [Cpd 290, 8-(4-ethyl-phenyl)-2-(1-methyl-1H-indol-5-ylamino)-5-oxo-5,8-dihydro-pyrido[2,3-d]pyrimidine-6-carboxylic acid methoxy-amide]
0.6 nM | CCc1ccc(-n2cc(C(=O)NOC)c(=O)c3cnc(Nc4ccc5c(c4)CC(=O)N5)nc32)cc1 [Cpd 304, 8-(4-ethyl-phenyl)-5-oxo-2-(2-oxo-2,3-dihydro-1H-indol-5-ylamino)-5,8-dihydro-pyrido[2,3-d]pyrimidine-6-carboxylic acid methoxy-amide]
2.1 nM | CONC(=O)c1cn(-c2ccc(OC(F)(F)F)cc2)c2nc(Nc3ccc(C4CCN(CCO)CC4)cc3)ncc2c1=O [Cpd 162, 2-{4-[1-(2-hydroxyethyl)-piperidin-4-yl]-phenylamino}-5-oxo-8-(4-trifluoromethoxy-phenyl)-5,8-dihydropyrido[2,3-d]pyrimidine-6-carboxylic acid methoxy-amide]
0.57 nM | CONC(=O)c1cn(-c2ccc3c(c2)CCC3)c2nc(Nc3ccc(CCN4CC[C@@H](F)C4)cc3)ncc2c1=O [Cpd 252, 2-(4-{2-[(3R)-(3-fluoro-pyrrolidin-1-yl)]-ethyl}-phenylamino)-8-indan-5-yl-5-oxo-5,8-dihydro-pyrido[2,3-d]pyrimidine-6-carboxylic acid methoxy-amide]
4.9 nM | CCc1ccc(-n2cc(C(=O)NOC3CCCC3)c(=O)c3cnc(Nc4ccc(CCN5CCN(C)CC5)cc4)nc32)cc1 [Cpd 92, 8-(4-ethyl-phenyl)-2-{4-[2-(4-methyl-piperazin-1-yl)-ethyl]-phenylamino}-5-oxo-5,8-dihydro-pyrido[2,3-d]pyrimidine-6-carboxylic acid cyclopentyloxy-amide]
3.1 nM | NC(=O)c1cn(-c2ccc3c(c2)CCC3)c2nc(Nc3ccc(N4CCC[C@H]4CO)cc3)ncc2c1=O [Cpd 6, (S)-2-[4-(2-hydroxymethyl-pyrrolidin-1-yl)-phenylamino]-8-indan-5-yl-5-oxo-5,8-dihydro-pyrido[2,3-d]pyrimidine-6-carboxylic acid amide]
2.2 nM | CONC(=O)c1cn(C2CCCC2)c2nc(Nc3ccc(N4CCCC4)cc3)ncc2c1=O [Cpd 35, 8-cyclopentyl-5-oxo-2-(4-pyrrolidin-1-yl-phenylamino)-5,8-dihydro-pyrido[2,3-d]pyrimidine-6-carboxylic acid methoxy-amide]
0.36 nM | CCc1cccc(-n2cc(C(=O)NOC)c(=O)c3cnc(Nc4ccc(C5CCN(C)CC5)cc4)nc32)c1 [Cpd 212, 8-(3-ethyl-phenyl)-2-[4-(1-methyl-piperidin-4-yl)-phenylamino]-5-oxo-5,8-dihydro-pyrido[2,3-d]pyrimidine-6-carboxylic acid methoxy-amide]
0.7 nM | CCc1ccc(-n2cc(C(=O)NOC)c(=O)c3cnc(Nc4cc(OC)c(OC)c(OC)c4)nc32)cc1 [Cpd 305, 8-(4-ethyl-phenyl)-5-oxo-2-(3,4,5-trimethoxy-phenylamino)-5,8-dihydro-pyrido[2,3-d]pyrimidine-6-carboxylic acid methoxy-amide]
1.6 nM | CCc1ccc(-n2cc(C(=O)NOC(C)C)c(=O)c3cnc(Nc4ccc(C5CCNCC5)cc4)nc32)cc1 [Cpd 58, 8-(4-ethyl-phenyl)-5-oxo-2-(4-piperidin-4-yl-phenylamino)-5,8-dihydro-pyrido[2,3-d]pyrimidine-6-carboxylic acid isopropoxy-amide]
1.1 nM | CONC(=O)c1cn(-c2ccc3c(c2)CCC3)c2nc(Nc3ccc(CCN4CCC[C@@H]4C(=O)O)cc3)ncc2c1=O [Cpd 109, (R)-1-{2-[4-(8-indan-5-yl-6-methoxycarbamoyl-5-oxo-5,8-dihydro-pyrido[2,3-d]pyrimidin-2-ylamino)-phenyl]-ethyl}-pyrrolidine-2-carboxylic acid]
1.2 nM | CCOC(=O)CN1CCC(c2ccc(Nc3ncc4c(=O)c(C(=O)NOC)cn(-c5ccc6c(c5)CCC6)c4n3)cc2)CC1 [Cpd 218, {4-[4-(8-indan-5-yl-6-methoxycarbamoyl-5-oxo-5,8-dihydro-pyrido[2,3-d]pyrimidin-2-ylamino)-phenyl]-piperidin-1-yl}-acetic acid ethyl ester]
0.42 nM | CONC(=O)c1cn(-c2ccc3c(c2)CCC3)c2nc(Nc3cccc(NC(=O)CN(C)C)c3)ncc2c1=O [Cpd 229, 2-[3-(2-dimethylamino-acetylamino)-phenylamino]-8-indan-5-yl-5-oxo-5,8-dihydro-pyrido[2,3-d]pyrimidine-6-carboxylic acid methoxy-amide]
31 nM | O=C(NCCO)c1cn(C2CCCC2)c2nc(Nc3ccc(CCN4CCCC4)cc3)ncc2c1=O [Cpd 43, 8-cyclopentyl-5-oxo-2-[4-(2-pyrrolidin-1-yl-ethyl)-phenylamino]-5,8-dihydro-pyrido[2,3-d]pyrimidine-6-carboxylic acid (2-hydroxy-ethyl)-amide]
1 nM | CONC(=O)c1cn(-c2ccc3c(c2)CCC3)c2nc(Nc3ccc(C[C@H]4COC(=O)N4)cc3)ncc2c1=O [Cpd 67, (S)-8-indan-5-yl-5-oxo-2-[4-(2-oxo-oxazolidin-4-ylmethyl)-phenylamino]-5,8-dihydro-pyrido[2,3-d]pyrimidine-6-carboxylic acid methoxy-amide]
0.3 nM | CONC(=O)c1cn(-c2ccc3c(c2)CCC3)c2nc(Nc3ccc(OC4CCN(C)CC4)cc3)ncc2c1=O [Cpd 313, 8-indan-5-yl-2-[4-(1-methyl-piperidin-4-yloxy)-phenylamino]-5-oxo-5,8-dihydro-pyrido[2,3-d]pyrimidine-6-carboxylic acid methoxy-amide]
1.9 nM | CONC(=O)c1cn(C2CCCC2)c2nc(Nc3ccc(C4CCNCC4)cc3)ncc2c1=O [Cpd 45, 8-cyclopentyl-5-oxo-2-(4-piperidin-4-yl-phenylamino)-5,8-dihydro-pyrido[2,3-d]pyrimidine-6-carboxylic acid methoxy-amide]
0.52 nM | CONC(=O)c1cn(-c2ccc3c(c2)CCC3)c2nc(Nc3ccc(CCN4CC(O)C4)cc3)ncc2c1=O [Cpd 254, 2-{4-[2-(3-hydroxy-azetidin-1-yl)-ethyl]-phenylamino}-8-indan-5-yl-5-oxo-5,8-dihydro-pyrido[2,3-d]pyrimidine-6-carboxylic acid methoxy-amide]
0.71 nM | CONC(=O)c1cn(-c2ccc3c(c2)CCC3)c2nc(Nc3ccc(C4CCN(C)CC4(F)F)cc3)ncc2c1=O (stereo not shown) [Cpd 237, 2-[4-(3,3-difluoro-1-methyl-piperidin-4-yl)-phenylamino]-8-indan-5-yl-5-oxo-5,8-dihydro-pyrido[2,3-d]pyrimidine-6-carboxylic acid methoxy-amide]
6.6 nM | NC(=O)c1cn(-c2ccc3c(c2)CCC3)c2nc(Nc3ccc(C(=O)N4CCCC4)cc3)ncc2c1=O [Cpd 122, 8-indan-5-yl-5-oxo-2-[4-(pyrrolidine-1-carbonyl)-phenylamino]-5,8-dihydro-pyrido[2,3-d]pyrimidine-6-carboxylic acid amide]
7.3 nM | CONC(=O)c1cn(-c2ccc3c(c2)CCC3)c2nc(Nc3ccc(S(=O)(=O)N4CCN(C)CC4)cc3)ncc2c1=O [Cpd 154, 8-indan-5-yl-2-[4-(4-methyl-piperazine-1-sulfonyl)-phenylamino]-5-oxo-5,8-dihydro-pyrido[2,3-d]pyrimidine-6-carboxylic acid methoxy-amide]
0.7 nM | CCc1ccc(-n2cc(C(=O)NOC(C)C)c(=O)c3cnc(Nc4ccc(C5CCN(CCCO)CC5)cc4)nc32)cc1 [Cpd 187, 8-(4-ethyl-phenyl)-2-{4-[1-(3-hydroxy-propyl)-piperidin-4-yl]-phenylamino}-5-oxo-5,8-dihydro-pyrido[2,3-d]pyrimidine-6-carboxylic acid isopropoxy-amide]

SMILES | IC50
CONC(=O)c1cn(-c2ccc3c(c2)CCC3)c2nc(Nc3cccc(C4(O)CCN(CC(F)(F)F)CC4)c3)ncc2c1=O [Cpd 277, 2-{3-[4-hydroxy-1-(2,2,2-trifluoro-ethyl)-piperidin-4-yl]-phenylamino}-8-indan-5-yl-5-oxo-5,8-dihydro-pyrido[2,3-d]pyrimidine-6-carboxylic acid methoxy-amide] | 2.7 nM
